Test results as given in patent US11542273B2, “Amide compound having bet proteolysis-inducing action and medicinal application thereof” (MITSUBISHI TANABE PHARMA CORPORATION, priority 2018, dated 2023).

Assays:
[1] = tested on: human chronic myeloid leukemia K562 cell; experiment: Cytotoxic action on cancer cells (WST-8, 96 hr); format: cell-based; conditions: 96 hr culture
In short: (§1)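 Cells in 10% FBS/RPMI1640 were seeded, cultured overnight at 37° C, 5% CO2, then exposed to DMSO-dissolved compound diluted in medium. Viable cells were counted with a WST-8 kit against compound-free controls. IC50 was interpolated linearly between the two survival points bracketing 50%.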

[2] = tested on: human large cell lung cancer NCI-H460 cell; experiment: Cytotoxic action on cancer cells (WST-8, 96 hr); format: cell-based; conditions: 96 hr culture
In short: as §1

[3] = tested on: human acute myeloid leukemia MV-4-11 cell transplanted mouse; experiment: Antitumor effect in human acute myeloid leukemia MV-4-11 cell transplanted mouse; format: in vivo; conditions: MV4-11, iv, 360 h, read-out: tumor growth inhibitory rate
Experimental: The in vivo antitumor effect of the compound of the present invention was studied using human acute myeloid leukemia MV-4-11 cell transplanted mouse. MV-4-11 cells were subcutaneously transplanted into the inguinal region of male, 6-week-old BALB/c nude mouse (5×10^6 cells/mouse). The compound of the present invention was administered into the tail vein on days 1, 5, 9, 13 from the time point when the assumed tumor volume determined from 1/2ab^2 (a is major axis and b is minor axis of tumor) reached about 100 mm^3 (day 1). The control group was administered with a solvent, 10% hydroxypropyl-β-cyclodextrin solution. On day 15, the tumor was isolated, the weight was measured, and the tumor growth inhibitory rate IR (%) was calculated by the following formula. tumor growth inhibitory rate IR (%)=(1−tumor weight of administration group/tumor weight of nonadministration control group)×100

BRD4 bromodomain 1 = BRD4 bromodomain 1 (Homo sapiens (Human), UniProt O60885); experiment: Inhibitory action on binding of BRD4 protein and ligand, Test Method 1 (TR-FRET, BRD4 bromodomain 1 TR-FRET Assay Kit); conditions: Test Method 1, BRD4 bromodomain 1 and ligand
Experimental: The inhibitory action of the compound of the present invention on the binding of BRD4 protein and a ligand thereof was evaluated by the time-resolved fluorescence resonance energy transfer (TR-FRET) method using BRD4 bromodomain 1 TR-FRET Assay Kit (Cayman). In this experiment, (+)-JQ1 known to have an inhibitory activity on the binding of BRD4 protein and a ligand therefor was used as a positive control drug. A test compound dissolved in DMSO was diluted with TR-FRET Assay Buffer, added to a 384 well black plate, BRD4 bromodomain 1 Europium Chelete was further added and the cells were incubated at room temperature for 15 min. Thereafter, BRD4 bromodomain 1 Ligand/APC Acceptor Mixture was added and the cells were incubated at room temperature for 1 hr. The binding amount of the BRD4 protein and ligand was measured as fluorescence intensity (excitation: 340 nm/emission: 620 nm and excitation: 340 nm/emission: 670 nm).
It was calculated from the straight line connecting the degradation rate at two points enclosing the 50% fluorescence intensity and the compound concentration.

BRD4-1 (GST) = BRD4-1 (GST) (Homo sapiens (Human), UniProt O60885); experiment: Inhibitory action on binding of BRD4 protein and acetylated histone H4, Test Method 2 (TR-FRET); conditions: Test Method 2, BRD4-1 (GST) and acetylated histone H4, TR-FRET
Experimental: The inhibitory action of the compound of the present invention on the binding of BRD4 protein and a ligand thereof (acetylated histone H4) was evaluated by the time-resolved fluorescence resonance energy transfer (TR-FRET) method using EPIgeneous™ Binding Domain Kit A (Cisbio), BRD4-1 (GST) (Reaction Biology Corp) and [Lys(Ac)5/8/12/16]-Histone H4(1-21)-GGK (Biotin) (Eurogentec). In this experiment, (+)-JQ1 known to have an inhibitory activity on the binding of BRD4 protein and acetylated histone H4 therefor was used as a positive control drug. A test compound dissolved DMSO was diluted with attached Diluent Buffer, added to a 384 well white plate, and BRD4-1 (GST) and [Lys(Ac)5/8/12/16]-Histone H4(1-21)-GGK (Biotin) were further added. Thereafter, Streptavidin-d2 conjugate and Anti-GST-Eu^3+ Cryptate Conjugate were added and the cells were incubated at room temperature for 3 hr. The binding amount of the BRD4 protein and acetylated histone H4 was measured as the fluorescence intensity (excitation: 314 nm/emission: 620 nm and excitation: 314 nm/emission: 665 nm). […] It was calculated from the straight line connecting the degradation rate at two points enclosing the 50% fluorescence intensity and the compound concentration.

Structure (SMILES) | IC50 [1] [nM] | IC50 [2] [nM] | inhibition in vivo at 1 mg/kg [3] [%] | inhibition in vivo at 5 mg/kg [3] [%] | IC50 (BRD4 bromodomain 1) [nM] | IC50 (BRD4-1 (GST)) [nM] | inhibition in vivo at 3 mg/kg [3] [%]
COC(=O)C[C@@H]1N=C(c2ccc(-c3ccc(OCC(=O)N[C@H](C(=O)N4C[C@H](O)C[C@H]4C(=O)N[C@@H](C)c4ccc(-c5scnc5C)cc4)C(C)(C)C)c(C#N)c3)cc2)c2c(sc(C)c2C)-n2c(C)nnc21 [Example 9, methyl [(6S)-4-{3′-cyano-4′-[2-({(2S)-1-[(2S,4R)-4-hydroxy-2-({(1S)-1-[4-(4-methyl-1,3-thiazol-5-yl)phenyl]ethyl}carbamoyl)pyrrolidin-1-yl]-3,3-dimethyl-1-oxobutan-2-yl}amino)-2-oxoethoxy][1,1′-biphenyl]-4-yl}-2,3,9-trimethyl-6H-thieno[3,2-f][1,2,4]triazolo[4,3-a][1,4]diazepin-6-yl]acetate] | 2.2 | 24 | 98.5 | 98.4 | 47 |  | 
COC(=O)C[C@@H]1N=C(c2ccc(N3CC[C@@H](Oc4ccc5oc(C(=O)N[C@H](C(=O)N6C[C@H](O)C[C@H]6C(=O)N[C@@H](C)c6ccc(-c7scnc7C)cc6)C(C)(C)C)cc5c4)C3)cc2)c2c(sc(C)c2C)-n2c(C)nnc21 [Example 142, methyl [(6S)-4-{4-[(3R)-3-{[2-({(2S)-1-[(2S,4R)-4-hydroxy-2-({(1S)-1-[4-(4-methyl-1,3-thiazol-5-yl)phenyl]ethyl}carbamoyl)pyrrolidin-1-yl]-3,3-dimethyl-1-oxobutan-2-yl}carbamoyl)-1-benzofuran-5-yl]oxy}pyrrolidin-1-yl]phenyl}-2,3,9-trimethyl-6H-thieno[3,2-f][1,2,4]triazolo[4,3-a][1,4]diazepin-6-yl]acetate] | 2.1 | 11 |  |  |  | 110 | 97.4
COC(=O)C[C@@H]1N=C(c2ccc(-c3ccc(C(=O)N[C@H](C(=O)N4C[C@H](O)C[C@H]4C(=O)N[C@@H](C)c4ccc(-c5scnc5C)cc4)C(C)(C)C)c(Cl)c3)cc2)c2c(sc(C)c2C)-n2c(C)nnc21 [Example 157, methyl {(6S)-4-[3′-chloro-4′-({(2S)-1-[(2S,4R)-4-hydroxy-2-({(1S)-1-[4-(4-methyl-1,3-thiazol-5-yl)phenyl]ethyl}carbamoyl)pyrrolidin-1-yl]-3,3-dimethyl-1-oxobutan-2-yl}carbamoyl)[1,1′-biphenyl]-4-yl]-2,3,9-trimethyl-6H-thieno[3,2-f][1,2,4]triazolo[4,3-a][1,4]diazepin-6-yl}acetate] | 1.2 | 23 | 95.5 |  |  | 61 | 98.2
